Literature values in patent publication US6465495B1, “Preparation of pyridone-based phosphotyrosine mimetics and uses thereof” (OSI Pharmaceuticals, Inc., priority 1998, dated 2002).

Conditions: literature values

N[C@@H](Cc1ccc(OP(=O)(O)O)cc1)C(=O)O [pTyr]
pKA2: 5.7
